{"source": "the supplement of paper PMC10307832", "assay_in_all_cases": "relative viability (nuclei count vs DMSO), 5 days (fraction); higher = more cells survive", "key": {"[1]": {"compound": "Cn1nnc2c(C(N)=O)ncn2c1=O [Temozolomide] + C[C@]1(O)C[C@@H](c2nc(-c3ccc4ccc(-c5ccccc5)nc4c3)c3c(N)nccn32)C1 [Linsitinib] (partner 1 µM)", "method_in_brief": "(§1)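 For relative viability, nuclei counts in treated wells were divided by those in vehicle wells. Lung cancer cell lines had been pin-tool dosed in 1536-well plates the day after seeding and cultured for 5 days, then fixed and stained in one step (final 0.05% Triton X-100, 1% formaldehyde, 1 ug/ml Hoechst) and imaged at 4×. Doses were one drug alone or a fixed anchor-drug dose plus five library-drug doses (not always all listed) in √10 steps, and values are duplicate-plate medians.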"}, "[2]": {"compound": "Cn1nnc2c(C(N)=O)ncn2c1=O [Temozolomide] + CC(C)C[C@H](NC(=O)[C@H](Cc1ccccc1)NC(=O)c1cnccn1)B(O)O [Bortezomib] (partner 0.002 µM)", "method_in_brief": "as §1"}, "AZD5582": {"compound": "C[C@@H](C(=O)N[C@@H](C1CCCCC1)C(=O)N2CCC[C@H]2C(=O)N[C@@H]3[C@@H](CC4=CC=CC=C34)OCC#CC#CCO[C@@H]5CC6=CC=CC=C6[C@@H]5NC(=O)[C@@H]7CCCN7C(=O)[C@H](C8CCCCC8)NC(=O)[C@H](C)NC)NC [AZD5582]", "method_in_brief": "(§2)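 Viability was defined as treated-well nuclei divided by vehicle-well nuclei, with the median taken over replicate plates. Cells from lung cancer lines sat overnight at 37 °C in 1536-well plates, received five √10-spaced library-drug doses by pinning on vehicle-anchored plates, and grew 5 days without medium change before one-step fixation, permeabilisation and Hoechst staining, 4× imaging and MetaXpress nuclear counts. Only plates with control CV under 25% and at least one doubling were kept.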"}, "Temozolomide": {"compound": "Cn1nnc2c(C(N)=O)ncn2c1=O [Temozolomide]", "method_in_brief": "as §2"}}}
{"cell line": "NCI-H1703", "values": [{"measurement": "relative viability", "setting": "[1]; first compound 0.2 µM", "result": 0.863}, {"measurement": "relative viability", "setting": "[1]; first compound 0.6325 µM", "result": 0.609}, {"measurement": "relative viability", "setting": "[1]; first compound 2 µM", "result": 1.32}, {"measurement": "relative viability", "setting": "[1]; first compound 6.325 µM", "result": 0.841}, {"measurement": "relative viability", "setting": "[1]; first compound 20 µM", "result": 0.95}, {"measurement": "relative viability", "setting": "[2]; first compound 0.2 µM", "result": 0.29}, {"measurement": "relative viability", "setting": "[2]; first compound 0.6325 µM", "result": 0.471}, {"measurement": "relative viability", "setting": "[2]; first compound 2 µM", "result": 0.365}, {"measurement": "relative viability", "setting": "[2]; first compound 6.325 µM", "result": 0.241}, {"measurement": "relative viability", "setting": "[2]; first compound 20 µM", "result": 0.284}, {"measurement": "relative viability", "setting": "AZD5582; 0.005 µM", "result": 0.853}, {"measurement": "relative viability", "setting": "AZD5582; 0.01581 µM", "result": 0.952}, {"measurement": "relative viability", "setting": "AZD5582; 0.05 µM", "result": 0.925}, {"measurement": "relative viability", "setting": "Temozolomide; 0.2 µM", "result": 0.986}, {"measurement": "relative viability", "setting": "Temozolomide; 0.6325 µM", "result": 0.947}, {"measurement": "relative viability", "setting": "Temozolomide; 2 µM", "result": 1.29}, {"measurement": "relative viability", "setting": "Temozolomide; 6.325 µM", "result": 0.825}, {"measurement": "relative viability", "setting": "Temozolomide; 20 µM", "result": 0.965}]}
